Test results reported in publication PMC8343220, “The selectivity of α‐adrenoceptor agonists for the human α1A, α1B, and α1D‐adrenoceptors” (Pharmacology Research & Perspectives, 2021).
Like-named read-outs stand apart in the source and are kept apart here.

What was measured:
[1] = target: T1, human α1B‐adrenoceptor (Homo sapiens, UniProt P35368); experiment: ^3H‐prazosin whole‐cell radioligand binding, CHO‐α1B cells
T1 construct: expressed in transfected cells; host or cells: CHO-K1
T1 sequence (P35368 1-520): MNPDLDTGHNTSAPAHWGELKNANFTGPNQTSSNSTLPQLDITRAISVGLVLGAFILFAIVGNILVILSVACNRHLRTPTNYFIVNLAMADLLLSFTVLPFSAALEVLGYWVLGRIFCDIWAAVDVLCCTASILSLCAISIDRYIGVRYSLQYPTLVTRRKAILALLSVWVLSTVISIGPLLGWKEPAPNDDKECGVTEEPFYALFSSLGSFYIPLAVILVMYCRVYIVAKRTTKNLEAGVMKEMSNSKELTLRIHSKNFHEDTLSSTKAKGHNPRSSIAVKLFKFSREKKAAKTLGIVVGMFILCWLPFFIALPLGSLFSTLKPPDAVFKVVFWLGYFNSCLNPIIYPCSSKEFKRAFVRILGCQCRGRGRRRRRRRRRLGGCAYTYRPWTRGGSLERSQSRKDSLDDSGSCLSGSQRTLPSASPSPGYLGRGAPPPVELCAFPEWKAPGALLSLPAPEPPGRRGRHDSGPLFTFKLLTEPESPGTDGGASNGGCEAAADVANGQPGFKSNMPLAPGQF

[2] = target: T2, human α1D‐adrenoceptor (full length) (Homo sapiens, UniProt P25100); experiment: ^3H‐prazosin whole‐cell radioligand binding, CHO‐α1D cells
T2 construct: human α1D‐adrenoceptor (full length) were used; expressed in transfected cells; host or cells: CHO-K1
T2 sequence (P25100 1-572): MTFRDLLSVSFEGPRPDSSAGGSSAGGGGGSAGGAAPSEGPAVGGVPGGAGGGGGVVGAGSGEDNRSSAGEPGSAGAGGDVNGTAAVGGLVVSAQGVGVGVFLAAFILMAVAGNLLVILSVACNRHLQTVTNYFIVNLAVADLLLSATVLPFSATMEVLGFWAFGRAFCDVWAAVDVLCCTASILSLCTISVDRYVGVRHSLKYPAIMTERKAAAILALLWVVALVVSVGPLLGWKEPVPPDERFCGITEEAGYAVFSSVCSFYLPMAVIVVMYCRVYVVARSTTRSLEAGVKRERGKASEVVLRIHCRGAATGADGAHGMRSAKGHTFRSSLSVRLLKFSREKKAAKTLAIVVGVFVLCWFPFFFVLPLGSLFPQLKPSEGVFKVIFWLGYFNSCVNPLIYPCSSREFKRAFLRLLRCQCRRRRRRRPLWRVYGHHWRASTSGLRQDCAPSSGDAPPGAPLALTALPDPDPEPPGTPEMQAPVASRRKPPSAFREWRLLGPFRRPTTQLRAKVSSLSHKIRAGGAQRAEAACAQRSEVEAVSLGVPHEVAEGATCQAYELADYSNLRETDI

[3] = target: T3, human α1A‐adrenoceptor (Homo sapiens, UniProt P35348); experiment: Intracellular free calcium mobilization, CHO‐α1A cells; type: cell-based; conditions: for EC50: read-out: Intracellular calcium release Log EC50 (converted)
T3 construct: expressed in transfected cells; host or cells: CHO-K1
T3 sequence (P35348 1-466): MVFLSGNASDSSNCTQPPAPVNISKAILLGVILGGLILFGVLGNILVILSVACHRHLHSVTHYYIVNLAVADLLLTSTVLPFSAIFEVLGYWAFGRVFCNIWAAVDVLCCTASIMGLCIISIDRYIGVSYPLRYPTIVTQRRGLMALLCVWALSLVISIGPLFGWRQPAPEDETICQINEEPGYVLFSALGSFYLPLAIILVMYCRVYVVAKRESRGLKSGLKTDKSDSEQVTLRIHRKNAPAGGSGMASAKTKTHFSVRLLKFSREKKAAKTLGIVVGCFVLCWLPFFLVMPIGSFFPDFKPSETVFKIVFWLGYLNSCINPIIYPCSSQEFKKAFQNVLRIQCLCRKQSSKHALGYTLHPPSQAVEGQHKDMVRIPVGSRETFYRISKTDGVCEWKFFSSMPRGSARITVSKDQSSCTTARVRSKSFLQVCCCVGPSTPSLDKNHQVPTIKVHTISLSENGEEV

[4] = target: T1, human α1B‐adrenoceptor; experiment: Intracellular free calcium mobilization, CHO‐α1B cells; type: cell-based
[5] = target: T2, human α1D‐adrenoceptor (full length); experiment: Intracellular free calcium mobilization, CHO‐α1D cells; type: cell-based
[6] = tested on: parental CHO cell line without any transfected receptors; experiment: Intracellular calcium mobilization, parent CHO cells without transfected receptors; type: cell-based, Chinese hamster; conditions: Cricetulus griseus; CHO cells without transfected receptors; response at maximum concentration used (c2), as % of ionomycin (10μM) response; mean ± s.e.m.; read-out: Intracellular calcium release % ionomycin
[7] = target: T3, human α1A‐adrenoceptor; experiment: ERK1/2‐phosphorylation (Surefire Alphascreen), CHO‐α1A cells; type: cell-based; conditions: for EC50: read-out: ERK1/2‐phosphorylation Log EC50 (converted)
[8] = target: T1, human α1B‐adrenoceptor; experiment: ERK1/2‐phosphorylation (Surefire Alphascreen), CHO‐α1B cells; type: cell-based
[9] = target: T2, human α1D‐adrenoceptor (full length); experiment: ERK1/2‐phosphorylation (Surefire Alphascreen), CHO‐α1D cells; type: cell-based; conditions: for EC50: read-out: ERK1/2‐phosphorylation Log EC50 (converted)
[10] = tested on: parental CHO cell line without any transfected receptors; experiment: ERK1/2‐phosphorylation, parent CHO cells without transfected receptors; type: cell-based, Chinese hamster; conditions: for Emax at 100 µM: Cricetulus griseus, CHO, read-out: ERK1/2-phosphorylation % PDBu at 100μM
[11] = target: T3, human α1A‐adrenoceptor; experiment: ^3H‐cAMP accumulation, CHO‐α1A cells; type: cell-based; conditions: CHO‐α1A cells; for cAMP accumulation % forskolin: % of 10 µM forskolin response
[12] = target: T1, human α1B‐adrenoceptor; experiment: ^3H‐cAMP accumulation, CHO‐α1B cells; type: cell-based; conditions: CHO‐α1B cells; for cAMP accumulation % forskolin: % forskolin maximum response; for EC50: read-out: cAMP accumulation Log EC50 (converted)
[13] = target: T1, human α1B‐adrenoceptor; experiment: ^3H‐cAMP accumulation in the presence of 10 μM forskolin, CHO‐α1B cells; type: cell-based; conditions: CHO‐α1B cells; for EC50: in presence of forskolin, read-out: cAMP accumulation (in presence of forskolin) Log EC50 (converted)
[14] = tested on: parental CHO cell line without any transfected receptors; experiment: Forskolin‐stimulated cAMP accumulation, parent CHO cells without transfected receptors; type: cell-based, Chinese hamster; conditions: CHO cells without transfected receptors
[15] = target: T3, human α1A‐adrenoceptor; experiment: ^3H‐prazosin whole‐cell radioligand binding, CHO‐α1A cells
[16] = target: T2, human α1D‐adrenoceptor (full length); experiment: ^3H‐cAMP accumulation, CHO‐α1D cells; type: cell-based; conditions: cAMP accumulation without forskolin
[17] = target: T2, human α1D‐adrenoceptor (full length); experiment: ^3H‐cAMP accumulation in the presence of 10 μM forskolin, CHO‐α1D cells; type: cell-based; conditions: CHO‐α1D cells
[18] = target: T3, human α1A‐adrenoceptor; experiment: ^3H‐cAMP accumulation in the presence of 10 μM forskolin, CHO‐α1A cells; type: cell-based; conditions: CHO‐α1A cells
[19] = Log KD, ^3H‐prazosin binding, CHO‐α1B cells, whole‐cell binding (from Table 1), given as log KD (negative numbers)
[20] = 3H‐prazosin binding Log KD, CHO‐α1D cells, whole‐cell binding (from Table 1), log values given negative
[21] = fold increase of the forskolin response

Clc1cccc(Cl)c1N=C1NCCN1 [Clonidine]
Kd ([1]; Log KD α1B, ^3H‐prazosin whole cell binding, CHO‐α1B cells, given as log KD (negative), mean ± SEM): 7.41 µM
Kd [1, 19]: 7.41 µM
Kd [2, 20]: 2.57 µM
Kd ([2]; Log KD α1D, ^3H‐prazosin whole cell binding, CHO‐α1D cells, given as log KD (negative), mean ± SEM, 'early plateau' = specific binding not fully inhibited): 2.57 µM
Intracellular calcium release % ionomycin [3]: 51.6 ± 1.2%
Intracellular calcium release % ionomycin [4]: 45.4 ± 2.1%
EC50 ([4]; Intracellular calcium release Log EC50, CHO‐α1B cells, given as log EC50 (negative numbers)): 0.017 µM
Intracellular calcium release % Ionomycin at 100 µM [5]: 8.0 ± 0.5%
Emax [6]: 1.6 ± 1%
ERK1/2‐phosphorylation % PDBu [7]: 85.7 ± 4.7%
ERK1/2‐phosphorylation % PDBu [8]: 60.6 ± 7.6%
EC50 ([8]; ERK1/2‐phosphorylation Log EC50, CHO‐α1B cells, for bi‐phasic responses the initial stimulatory part): 0.0891 µM
ERK1/2‐phosphorylation % PDBu at 100 µM [9]: 6.1 ± 1.3%
ERK1/2-phosphorylation % PDBu ([10]; CHO cells without transfected receptors, maximal response as % of PDBu (10μM) response, mean ± s.e.m.): No response
cAMP accumulation % forskolin [11]: 33.8 ± 3.2%
cAMP accumulation % forskolin [12]: 7.5 ± 0.8%
EC50 [12]: 0.251 µM
EC50 [13]: 0.0447 µM
cAMP accumulation (in presence of forskolin) Log EC50 ([14]; in presence of forskolin): No response

COc1nc(C)nc(Cl)c1N=C1NCCN1 [Moxonidine]
Kd ([15]; CHO‐α1A cells, given as log KD (negative), mean ± SEM): 28.8 µM
Affinity selectivity ratio α1A vs α1B ([15]; higher affinity for α1A than α1B): 11.7 fold
Affinity selectivity ratio α1A vs α1D ([15]; higher affinity for α1A than α1D): 3.8 fold
Kd ([1]; CHO‐α1B cells, given as log KD (negative), mean ± SEM): 339 µM
Kd [1, 19]: 339 µM
Kd [2, 20]: 110 µM
Kd ([2]; CHO‐α1D cells, given as log KD (negative), mean ± SEM, 'early plateau' = specific binding not fully inhibited): 110 µM
Affinity selectivity ratio α1B vs α1D ([2]; higher affinity for α1D than α1B): 3.1 fold
Log efficacy ratio KD /EC50 ([3]; CHO‐α1A cells, binding KD and calcium EC50): 1.97
EC50 ([3]; CHO‐α1A cells, given as log EC50 (negative)): 0.309 µM
Intracellular calcium release % ionomycin ([3]; CHO‐α1A cells, maximal response as % of 10 µM ionomycin): 59.3 ± 4.5%
EC50 ([4]; CHO‐α1B cells, given as log EC50 (negative numbers), read-out: Intracellular calcium release Log EC50 (converted)): 0.324 µM
Log efficacy ratio KD /EC50 ([4]; CHO‐α1B cells, intrinsic efficacy ratio, KD from binding / EC50 calcium, log): 3.02
Intracellular calcium release % ionomycin ([4]; CHO‐α1B cells, maximal response as % of 10 µM ionomycin response): 57.9 ± 2.1%
Log efficacy ratio KD /EC50 ([5]; CHO‐α1D cells, intrinsic efficacy ratio, binding KD / calcium EC50): 1.25
EC50 ([5]; CHO‐α1D cells, log values given negative, read-out: Intracellular calcium release Log EC50 (converted)): 6.17 µM
Intracellular calcium release % ionomycin ([5]; CHO‐α1D cells, maximal response as % of 10 µM ionomycin): 16.6 ± 2.9%
EC50 ([7]; CHO‐α1A cells, 2–4 min, ^a bi‐phasic: initial stimulatory part, ^b also active in parent CHO cells): 0.141 µM
ERK1/2‐phosphorylation % PDBu ([7]; CHO‐α1A cells, % of 10 µM PDBu, ^a bi‐phasic: initial stimulatory part): 78.0 ± 7.2%
EC50 ([8]; CHO‐α1B cells, for bi‐phasic responses the initial stimulatory part, read-out: ERK1/2‐phosphorylation Log EC50 (converted)): 0.912 µM
ERK1/2‐phosphorylation % PDBu ([8]; CHO‐α1B cells, maximal response as % PDBu response, for bi‐phasic responses the initial stimulatory part): 102.0 ± 6.5%
EC50 ([9]; CHO‐α1D cells, log values given negative): 14.8 µM
ERK1/2‐phosphorylation % PDBu ([9]; CHO‐α1D cells, maximal response as % of PDBu): 16.4 ± 1.6%
Emax at 100 µM [10]: 3.1 ± 1.9%
cAMP Log EC50 [16]: No response
cAMP (in presence of forskolin) Fold increase [17, 21]: No response
cAMP (in presence of forskolin) Log EC50 ([17]; in presence of forskolin, log values given negative): No response

Cc1cccc(C(C)c2cnc[nH]2)c1C (stereo not drawn) [Medetomidine]
Affinity selectivity ratio α1A vs α1B [15]: 6.2 fold
Kd ([15]; Log KD α1A, ^3H‐prazosin whole cell binding): 2.34 µM
Kd ([1]; Log KD α1B, ^3H‐prazosin whole cell binding): 14.5 µM
Kd ([1]; Log KD, ^3H‐prazosin binding): 14.5 µM
Affinity selectivity ratio α1A vs α1D [2]: 1.1 fold
Affinity selectivity ratio α1B vs α1D [2]: 6.8 fold
Kd ([2]; 3H‐prazosin binding Log KD): 2.14 µM
Kd ([2]; Log KD α1D, ^3H‐prazosin whole cell binding): 2.14 µM
Intracellular calcium release % ionomycin [3]: 57.2 ± 1.8%
Log efficacy ratio KD /EC50 [3]: 2.06
EC50 [3]: 0.0204 µM
Intracellular calcium release % ionomycin [4]: 43.0 ± 3.4%
Log efficacy ratio KD /EC50 [4]: 2.09
EC50 ([4]; read-out: Intracellular calcium release Log EC50 (converted)): 0.117 µM
Intracellular calcium release % Ionomycin at 100 µM [5]: 11.5 ± 2.3%
Emax [6]: 11.7 ± 2.4%
ERK1/2‐phosphorylation % PDBu [7]: 85.8 ± 3.3%
EC50 [7]: 0.0316 µM
ERK1/2‐phosphorylation % PDBu [8]: 55.2 ± 5.3%
EC50 ([8]; read-out: ERK1/2‐phosphorylation Log EC50 (converted)): 0.138 µM
ERK1/2‐phosphorylation % PDBu [9]: 22.6 ± 5.1%
EC50 [9]: 7.24 µM
Emax at 100 µM [10]: 7.9 ± 3.8%
EC50 ([11]; 5 h, read-out: cAMP accumulation Log EC50 (converted)): 0.646 µM
cAMP accumulation % forskolin [11]: 46.3 ± 5.2%
cAMP accumulation % forskolin [12]: 4.6 ± 0.9%
EC50 [12]: 0.115 µM
EC50 ([18]; 10 μM forskolin, read-out: cAMP accumulation (in presence of forskolin) Log EC50 (converted)): 0.126 µM
cAMP accumulation (in presence of forskolin) Fold increase [18, 21]: 2.12 ± 0.09 fold
cAMP accumulation (in presence of forskolin) Fold increase [13, 21]: 1.52 ± 0.04 fold
EC50 [13]: 0.0933 µM
cAMP accumulation (in presence of forskolin) % forskolin-stim cAMP at 100μM ([14]; response at 100μM only, EC50 not obtainable, % of forskolin-stimulated cAMP): 88.4 ± 3.2%
